Assay results: ChEMBL document CHEMBL3137667, “[Drug-induced liver injury; fourteenth updated edition of the bibliographic database of liver injuries and related drugs]” (Gastroenterol Clin Biol, 2004)
*1 amine or outer side, *2 acyl side, *3 side chain or, on linkers, in order; H or OH if unused. Where a SMILES comes first, the peptide text is derived from it. Bridges are numbered along the chain shown (N, C = ends). [ ]: non-standard residue; d: D form. The star is where a group is joined. X1 = O=C1C[C@@H](C(=O)[*:2])N([*:1])C[C@H]1CS[C@@H]1CN2CCC1CC2; NMePhe(4-NMe2) = CN[C@@H](Cc1ccc(N(C)C)cc1)C(=O)O; Picolinoyl(3-OH) = O=C(c1ncccc1O)*; Phg = N[C@H](C(=O)O)c1ccccc1; dAbu = CC[C@@H](N)C(=O)O

What was measured:
[1] = human, serum
[2] = human
[3] = human; remark: listed apart in the source
[4] = human; remark: listed apart in the source
[5] = human, serum; remark: listed apart in the source
[6] = Highest frequency of moderate liver toxicity observed during clinical trials, expressed as a percentage. [column '% BIOL' in source]; conditions: human
[7] = human, serum, 4383 h
[8] = human; remark: listed apart in the source
[9] = human; remark: listed apart in the source
[10] = human; remark: listed apart in the source
[11] = Highest frequency of acute liver toxicity observed during clinical trials, expressed as a percentage. [column '% AIGUE' in source]; conditions: human
[12] = human; remark: listed apart in the source
[13] = human; remark: listed apart in the source
[14] = human; remark: listed apart in the source
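Wherever Hepatotoxicity (association with vascular disease) is given: count of indexed literature references reporting vascular liver injury in humans, e.g. peliosis hepatitis, hepatic veno-occlusive disease or Budd-Chiari syndrome.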
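Wherever Hepatotoxicity (benign tumour) is given: value is a count of indexed literature references citing a benign tumour confirmed by histopathology.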
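Wherever Hepatotoxicity (choleostasis) is given: human cholestatic liver injury, shown by histopathology or by peak ALT or AST elevation over alkaline phosphatase ratio below 2, value counts indexed literature reports.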
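Wherever Hepatotoxicity (chronic liver disease) is given: chronic liver injury confirmed by histopathology or persistently raised serum aminotransferase activity beyond 6 months, value given as the count of indexed literature references.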
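Wherever Hepatotoxicity (cirrhosis) is given: value is a count of indexed literature references reporting cirrhosis confirmed by histopathology.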
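Wherever Hepatotoxicity (cytolytic) is given: human cytolytic liver injury, shown by histopathology or by a ratio above 5 of peak ALT or AST elevation to alkaline phosphatase elevation, value counts indexed references.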
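Wherever Hepatotoxicity (granulomatous hepatitis) is given: value is a count of indexed literature references reporting granulomatous liver disease confirmed by histopathology.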
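Wherever Hepatotoxicity (malignant tumour) is given: malignant tumour confirmed by histopathology, value gives the count of indexed literature references reporting it.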
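Wherever Hepatotoxicity (severe hepatitis) is given: human clinical data: severe hepatitis, meaning potentially life-threatening liver failure or clinically observed cases, the value counts how many indexed literature references report it.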
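Wherever Hepatotoxicity (steatosis) is given: steatosis confirmed by histopathology, value is the count of indexed references.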

Row | Compound | Hepatotoxicity (moderate) [1] | Hepatotoxicity (steatosis) [2] | Hepatotoxicity (cytolytic) [3] | Hepatotoxicity (choleostasis) [4] | Hepatotoxicity (acute) [5] | Hepatotoxicity (moderate) [6] [%] | Hepatotoxicity (chronic liver disease) [7] | Hepatotoxicity (malignant tumour) [8] | Hepatotoxicity (benign tumour) [9] | Hepatotoxicity (severe hepatitis) [10] | Hepatotoxicity (acute) [11] [%] | Hepatotoxicity (cirrhosis) [12] | Hepatotoxicity (association with vascular disease) [13] | Hepatotoxicity (granulomatous hepatitis) [14] | Hepatotoxicity (moderate) ([6]; Liver) [%] | Hepatotoxicity (severe hepatitis) ([10]; Liver) | Hepatotoxicity (acute) ([11]; Liver) [%]
1 | CN(Cc1cc(Br)cc(Br)c1N)C1CCCCC1 [BROMHEXINE] | 1 | 0 | 0 | 0 | 0 | 0 | 0 | 0 | 0 | 0 | 0 | 0 | 0 | 0 |  |  | 
2 | CCN(CC)CCS(=O)(=O)[C@@H]1CCN2C(=O)c3coc(n3)CC(=O)C[C@H](O)/C=C(C)/C=C/CNC(=O)/C=C/[C@@H](C)[C@@H](C(C)C)OC(=O)[C@@H]12.CC[C@H]1NC(=O)[C@@H](NC(=O)c2ncccc2O)[C@@H](C)OC(=O)[C@H](c2ccccc2)NC(=O)[C@@H]2CC(=O)[C@H](CS[C@@H]3CN4CCC3CC4)CN2C(=O)[C@H](Cc2ccc(N(C)C)cc2)N(C)C(=O)[C@@H]2CCCN2C1=O [QUINUPRISTIN/DALFOPRISTIN] ({Picolinoyl(3-OH)}-T[dAbu]P[NMePhe(4-NMe2)][X1][Phg]; ester 1-C) | 8 | 0 | 0 | 0 | 0 | 7.1 | 0 | 0 | 0 | 0 | 0 | 0 | 0 | 0 |  |  | 
3 | CCC/C=C/C=C/C(=O)O[C@H]1/C(=C/C(=O)OC)C[C@H]2C[C@H]([C@@H](C)O)OC(=O)C[C@H](O)C[C@@H]3C[C@H](OC(C)=O)C(C)(C)[C@](O)(C[C@@H]4C/C(=C/C(=O)OC)C[C@H](/C=C/C(C)(C)[C@]1(O)O2)O4)O3 [BRYOSTATIN 1] | 2 | 0 | 0 | 1 | 1 | 16.7 | 0 | 0 | 0 | 0 | 8.3 | 0 | 0 | 0 |  |  | 
4 | COc1cc2nc(N3CCN(C(=O)c4ccco4)CC3)nc(N)c2cc1OC [PRAZOSIN] | 0 | 0 | 0 | 1 | 1 |  | 0 | 0 | 0 |  |  | 0 | 0 | 0 | 0 | 0 | 0.2
5 | CC1(C)S[C@@H]2[C@H](NC(=O)[C@H](NC(=O)N3CCNC3=O)c3ccccc3)C(=O)N2[C@H]1C(=O)O [AZLOCILLIN] | 3 | 0 | 0 | 0 | 0 | 11.1 | 0 | 0 | 0 | 0 | 0 | 0 | 0 | 0 |  |  | 
6 | CCOC(=O)OC(C)OC(=O)[C@@H]1N2C(=O)[C@@H](/N=C/N3CCCCCC3)[C@H]2SC1(C)C (some centres not stated) [BACMECILLINAM] | 3 | 0 | 0 | 0 | 0 | 1.8 | 0 | 0 | 0 | 0 | 0 | 0 | 0 | 0 |  |  | 
7 | Cc1cccc(C)c1OCC(=O)N[C@@H](Cc1ccccc1)[C@@H](O)C[C@H](Cc1ccccc1)NC(=O)[C@H](C(C)C)N1CCCNC1=O [LOPINAVIR] | 1 | 0 | 2 | 0 | 2 | 0 | 0 | 0 | 0 | 0 | 8 | 0 | 0 | 0 |  |  | 
8 | NCC[C@H](O)C(=O)N[C@@H]1C[C@H](N)[C@@H](O[C@H]2O[C@H](CN)CC[C@H]2N)[C@H](O)[C@H]1O[C@H]1O[C@H](CO)[C@@H](O)[C@H](N)[C@H]1O [ARBEKACIN] | 30 | 0 | 0 | 0 | 0 | 27.3 | 0 | 0 | 0 | 0 | 0 | 0 | 0 | 0 |  |  | 
